Measured values reported in patent publication US20090018194A1, “Use of antimicrobial agents derived from alliaceous plants for the prevention and control of crop diseases, post-harvest rot and as environmental disinifectant products” (DMC Research Center, S.L., priority 2007, published 2009).

Legend:
[1] = test system: Colletotrichum sp. (CPC-PT-5); assay: agar diffusion test, wild fungi isolated from crown rot in bananas; type: cell-based; conditions: incl. 6 mm disc
Description: (§1) A. The “in vitro” antimicrobial activity of these compounds was tested (referenced as PTS and PTSO), at different doses, as well as their activity against a broad spectrum of bacteria, fungi and yeasts. The tests were conducted against standard micro-organisms (reference strains from different collections of standard crops) and also against wild strains isolated from different types of rot and fruits and other affected crops.
(§2) These tests of antimicrobial capacity were conducted according to the agar diffusion technique, using cellulose discs 6 mm in diameter, impregnated with the different doses under study. For the assessment of the anti-fungal capability, the medium Sabouraud glucosate agar 2% was used, inoculated with suspensions of spores prepared to a concentration on the order of 10^8 cells/ml. To assess the antibacterial capability, the cultivation medium Müller-Hinton agar was used, inoculated with suspensions of bacteria prepared to a concentration of 10^6 cells/ml.
(§3) Once the plates were inoculated, the discs previously impregnated with the different test doses of each of the compounds to be analyzed were put in place. The reading was taken after incubation of the plates by measuring the zone of inhibition that appeared, and the result was expressed in mm corresponding to the diameter of the halo that appeared (including the 6 mm of the cellulose disc).
(§4) Once the screening of the anti-microbial capability of the compounds claimed by the invention had been performed over a broad range of reference strains, their efficiency was corroborated against wild strains, which we isolated as specific pathogens that affect different crops of different geographic origins.

Fusarium sp. (CPC-PT-7) = assay: as above; type: cell-based; conditions: incl. 6 mm disc
Description: as §1, §2, §3, §4

[2] = test system: Unidentified yeast (CPC-PT-10); assay: as above; type: cell-based; conditions: incl. 6 mm disc
Description: as §1, §2, §3, §4

Fusarium sp. (CPC-PT-8) = assay: as above; type: cell-based; conditions: incl. 6 mm disc
Description: as §1, §2, §3, §4

[3] = test system: Colletotrichum sp. (CPC-PC-6); assay: as above; type: cell-based; conditions: incl. 6 mm disc
Description: as §1, §2, §3, §4

Fusarium sp. (CPC-PT-9) = assay: as above; type: cell-based; conditions: incl. 6 mm disc
Description: as §1, §2, §3, §4

[4] = test system: Listeria innocua CECT 4030; assay: agar diffusion test with impregnated cellulose discs; type: cell-based; conditions: incl. 6 mm disc
Fusarium spp. = assay: field tests on affected asparagus, Fusarium spp. in the soil; type: in vivo; conditions: for % Reduction / % elimination: soil, 60 days after application, compared to untreated control; for effectiveness of the application (in words): Fusarium spp. in asparagus, disinfection of agricultural soil
Description: The treatment doses used were 250, 500 and 1000 ppm of both active principles (PT and PTSO), and the initial incidence of the pathogen was compared with its presence 60 days after its application.
To analyze the growth of the crops infected by Fusarium spp. after the treatments, root and soil samples were taken and tests were performed in the laboratory to investigate the incidence of the pathogen in the roots and soil. The cultivation media used were potato dextrose agar and rose bengal agar (to prevent the invasive character of the Mucoralean fungi).
The soil analysis was conducted by sequential dilutions of the soils in physiological serum with a subsequent sowing in the above mentioned media. The analysis of the roots was performed after dissection of the infected tissues, which were deposited in triplicate on filter paper located above both media, and their evolution over time was studied.
The data are expressed as a percentage of elimination and reduction as a function of the treatment dose compared to the untreated control samples.

[5] = test system: Fungi mixture (P. expansum, P. italicum, P. digitatum and A. Alternata); assay: disinfection of artificially contaminated containers by drencher; conditions: drencher 30 seconds
Description: A test of the disinfection of containers (fruit boxes and crates) was conducted in which a level of artificial contamination was created by means of controlled inoculation, with the objective of determining optimum doses of application to achieve a satisfactory disinfection. First the containers (made of wood and plastic) were disinfected with sodium hypochlorite, and they were then artificially contaminated via controlled inoculations with different fungi characteristic of the fruit and vegetable processing sector. For this purpose, isolated wild strains were used which, after sporulation, were collected to create a suspension of mixed spores of various fungi (Penicillium expansum, Penicillium italicum, Penicillium digitarum and Alternario alternata) and, separately in simultaneous tests (as a result of its higher rate of growth and its invasive character), a suspension of Rhizopus stolonifer. […] After this fogging, the containers were allowed to dry. The containers were then sampled to determine the level of initial contamination achieved (by means of contact plates containing Rose Bengal agar). The containers were then treated in a pilot line […]. The hold time of the containers under the showers was 30 seconds, and the test doses were 750 ppm and 1050 ppm for PTS and 2000 ppm and 5000 ppm in the case of PTSO. After exiting the showers, the treated containers were allowed to dry, and were again sampled using contact plates with Rose Bengal agar to determine the final level of contamination. The sampling unit was 3 containers and 3 plates per repetition.

Botrytis cinerea = assay: field control of Botrytis in strawberries, foliar spraying; type: in vivo; conditions: after 12 days
[6] = test system: Bacillus subtilis ATCC 6633; assay: agar diffusion test with impregnated cellulose discs; type: cell-based; conditions: incl. 6 mm disc

CCCS[S+]([O-])CCC (centres unmarked) [PTS, Propyl Propyl Thiosulfinate]
diameter of the microbial inhibition halo ([1]; 30 ppm): 10 mm | diameter of the microbial inhibition halo ([1]; 60 ppm): 20 mm | diameter of the microbial inhibition halo ([1]; 125 ppm): 30 mm | diameter of the microbial inhibition halo ([1]; 250 ppm): 40 mm | diameter of the microbial inhibition halo ([1]; 500 ppm): 43 mm | diameter of the microbial inhibition halo ([1]; 1000 ppm): 43 mm | diameter of the microbial inhibition halo (Fusarium sp. (CPC-PT-7); 30 ppm): 0 mm | diameter of the microbial inhibition halo (Fusarium sp. (CPC-PT-7); 60 ppm): 0 mm | diameter of the microbial inhibition halo (Fusarium sp. (CPC-PT-7); 125 ppm): 15 mm | diameter of the microbial inhibition halo (Fusarium sp. (CPC-PT-7); 250 ppm): 25 mm | diameter of the microbial inhibition halo (Fusarium sp. (CPC-PT-7); 500 ppm): 25 mm | diameter of the microbial inhibition halo (Fusarium sp. (CPC-PT-7); 1000 ppm): 35 mm | diameter of the microbial inhibition halo ([2]; 30 ppm): 40 mm | diameter of the microbial inhibition halo ([2]; 60 ppm): 45 mm | diameter of the microbial inhibition halo ([2]; 125 ppm): 50 mm | diameter of the microbial inhibition halo ([2]; 250 ppm): 55 mm | diameter of the microbial inhibition halo ([2]; 500 ppm): 63 mm | diameter of the microbial inhibition halo ([2]; 1000 ppm): 65 mm | diameter of the microbial inhibition halo (Fusarium sp. (CPC-PT-8); 30 ppm): 0 mm | diameter of the microbial inhibition halo (Fusarium sp. (CPC-PT-8); 60 ppm): 10 mm | diameter of the microbial inhibition halo (Fusarium sp. (CPC-PT-8); 125 ppm): 12 mm | diameter of the microbial inhibition halo (Fusarium sp. (CPC-PT-8); 250 ppm): 15 mm | diameter of the microbial inhibition halo (Fusarium sp. (CPC-PT-8); 500 ppm): 20 mm | diameter of the microbial inhibition halo (Fusarium sp. (CPC-PT-8); 1000 ppm): 20 mm | diameter of the microbial inhibition halo ([3]; 30 ppm): 20 mm | diameter of the microbial inhibition halo ([3]; 60 ppm): 30 mm | diameter of the microbial inhibition halo ([3]; 125 ppm): 35 mm | diameter of the microbial inhibition halo ([3]; 250 ppm): 47 mm | diameter of the microbial inhibition halo ([3]; 500 ppm): 48 mm | diameter of the microbial inhibition halo ([3]; 1000 ppm): 45 mm | diameter of the microbial inhibition halo (Fusarium sp. (CPC-PT-9); 30 ppm): 0 mm | diameter of the microbial inhibition halo (Fusarium sp. (CPC-PT-9); 60 ppm): 0 mm | diameter of the microbial inhibition halo (Fusarium sp. (CPC-PT-9); 125 ppm): 0 mm | diameter of the microbial inhibition halo (Fusarium sp. (CPC-PT-9); 250 ppm): 15 mm | diameter of the microbial inhibition halo (Fusarium sp. (CPC-PT-9); 500 ppm): 30 mm | diameter of the microbial inhibition halo (Fusarium sp. (CPC-PT-9); 1000 ppm): 33 mm | diameter of the microbial inhibition halo ([4]; 60 ppm): 13 mm | diameter of the microbial inhibition halo ([4]; 125 ppm): 23 mm | diameter of the microbial inhibition halo ([4]; 250 ppm): 32 mm | diameter of the microbial inhibition halo ([4]; 500 ppm): 37 mm | diameter of the microbial inhibition halo ([4]; 1000 ppm): 40 mm | % Reduction (Fusarium spp.; 250 ppm): 0% | % elimination (Fusarium spp.; 250 ppm): 100% | % Reduction (Fusarium spp.; 500 ppm): 12.5% | % elimination (Fusarium spp.; 500 ppm): 87.5% | % Reduction (Fusarium spp.; 1000 ppm): 0% | % elimination (Fusarium spp.; 1000 ppm): 100% | effectiveness of the application (in words) (Fusarium spp.): highly effective | Reduction of the population (%) ([5]; 750 ppm, Plastic container): 81% | Reduction of the population (%) ([5]; 750 ppm, Wood container): 85% | Reduction of the population (%) ([5]; 1050 ppm, Plastic container): 87% | Reduction of the population (%) ([5]; 1050 ppm, Wood container): 85% | % of fruit affected (Botrytis cinerea; 2000 ppm): 3.8% | No. of fruits affected (Botrytis cinerea; 2000 ppm, 150 fruits): 6 | % of fruit affected (Botrytis cinerea; 2400 ppm): 3.1% | No. of fruits affected (Botrytis cinerea; 2400 ppm, 148 fruits): 5 | % of fruit affected (Botrytis cinerea; 4800 ppm): 3.1% | No. of fruits affected (Botrytis cinerea; 4800 ppm, 141 fruits): 4 | % of fruit affected (Botrytis cinerea; 9600 ppm): 2% | No. of fruits affected (Botrytis cinerea; 9600 ppm, 114 fruits): 2 | diameter of the microbial inhibition halo ([6]; 60 ppm): 32 mm | diameter of the microbial inhibition halo ([6]; 125 ppm): 35 mm | diameter of the microbial inhibition halo ([6]; 250 ppm): 40 mm | diameter of the microbial inhibition halo ([6]; 500 ppm): 55 mm | diameter of the microbial inhibition halo ([6]; 1000 ppm): 55 mm

CCCSS(=O)(=O)CCC [PTSO, Propyl Propyl Thiosulfonate]
diameter of the microbial inhibition halo ([4]; 60 ppm): 13 mm | diameter of the microbial inhibition halo ([4]; 125 ppm): 20 mm | diameter of the microbial inhibition halo ([4]; 250 ppm): 35 mm | diameter of the microbial inhibition halo ([4]; 500 ppm): 43 mm | diameter of the microbial inhibition halo ([4]; 1000 ppm): 52 mm | % Reduction (Fusarium spp.; 250 ppm): 15% | % elimination (Fusarium spp.; 250 ppm): 85% | % Reduction (Fusarium spp.; 500 ppm): 25% | % elimination (Fusarium spp.; 500 ppm): 75% | % Reduction (Fusarium spp.; 1000 ppm): 0% | % elimination (Fusarium spp.; 1000 ppm): 100% | effectiveness of the application (in words) (Fusarium spp.): highly effective | Reduction of the population (%) ([5]; 2000 ppm, Plastic container): 93% | Reduction of the population (%) ([5]; 2000 ppm, Wood container): 98% | Reduction of the population (%) ([5]; 5000 ppm, Plastic container): 93% | Reduction of the population (%) ([5]; 5000 ppm, Wood container): 99% | diameter of the microbial inhibition halo ([6]; 60 ppm): 27 mm | diameter of the microbial inhibition halo ([6]; 125 ppm): 36 mm | diameter of the microbial inhibition halo ([6]; 250 ppm): 42 mm | diameter of the microbial inhibition halo ([6]; 500 ppm): 50 mm | diameter of the microbial inhibition halo ([6]; 1000 ppm): 68 mm
